The source of these data is ChEMBL document CHEMBL6114943, “Engineered Cyclotide Blocks Neuronal Excitotoxicity” (J Med Chem, 2025).

SMILES strings stand for the structures. pKd: −log10 of the molar value. Calls of active or inactive are those of the source. Where a SMILES comes first, the peptide text is derived from it. Bridges are numbered along the chain shown (N, C = ends).

Data set [1] in a line: Stability in C57BL/6 mouse plasma assessed as half life at 100 uM incubated for 300 min by HPLC analysis. The class given is ADME, cell-free.
The nature of data set [2]: Stability in C57BL/6 mouse plasma assessed as parent compound remaining at 100 uM measured after 5 hrs by HPLC analysis relative to control. Format: ADME, cell-free. To be noted: read-out: Stability.
Data set [3] is described as follows: Stability in C57BL/6 mouse plasma assessed as drug degradation at 100 uM measured < 15 mins in presence of alteplase by HPLC analysis. The class given is ADME, cell-free. Conditions: 0.25 h.
The test system of data set [4] is Neuron. The experiment in a line: Cytotoxicity against mouse primary neuron upto 1 uM incubated for 24 hrs. The class given is toxicity, cell-based.
Data set [5] concerns Neuron. The experiment in a line: Neuroprotective activity against NMDA-induced cell death in mouse primary neuron assessed as reduction in cell viability preincubated with compound for 1 hrs followed by NMDA addition and measured after 1 hrs by PI staining based analysis relative to control. The class given is functional. To be noted: time 2.0 hrs.
For data set [6], the system named is Mus musculus. The experiment in a line: Neuroprotective activity against pilocarpine-induced seizure in C57BL6 mouse assessed as survival rate at 3 nmol/g, iv pretreated with compound for 1 hrs followed by pilocarpine induction and measured after 2 hrs relative to control. To be noted: time 3 hrs. Format: functional.
Data set [7] in a line: Drug uptake in mouse Primary neuron at 500 nM incubated for 60 mins by inverted confocal microscopic analysis relative to control. The class given is ADME, cell-based. To be noted: 1 h, 0.5 µM.
Data set [8] can be described thus: Drug uptake in mouse Primary neuron at 100 nM incubated for 60 mins by inverted confocal microscopic analysis relative to control. The class given is ADME, cell-based. Conditions: 1 h, 0.1 µM.
The nature of data set [9]: Drug uptake in mouse Primary neuron at 100 nM measured at 60 mins by inverted confocal microscopic analysis. Conditions: 1 h, 0.1 µM. The class given is ADME, cell-based.
Data set [10] relates to Neuron. The experiment in a line: Neuroprotective activity against NMDA-induced cell death in mouse primary neuron assessed as cell viability preincubated with compound for 1 hrs followed by NMDA addition and measured after 1 hrs by PI staining based analysis relative to control. The class given is functional. Conditions: time 2 hrs.
Data set [11] has as its system Neuron. Nature of the data set: Neuroprotective activity against Amyloid beta-induced cell death in mouse primary neuron assessed as cell viability preincubated with compound for 1 hrs followed by Amyloid beta addition and measured after 1 hrs by PI staining based analysis relative to control. To be noted: time 2 hrs. Format: functional.
The next data set concerns the target Disks large homolog 4 (Homo sapiens, UniProt P78352). Nature of the data set: Binding affinity to PSD-95 (unknown origin) assessed as binding constant (Kd) by MST analysis.
A short description of data set [12]: Toxicity in C57BL/6 mouse assessed as histological changes in kidney at 3 nmol/g, iv administered 3 consecutive days by H and E staining based analysis. Format: organism-based. Conditions: in vivo.
Data set [13] is described as follows: Toxicity in C57BL/6 mouse assessed as histological changes in liver at 3 nmol/g, iv administered 3 consecutive days by H and E staining based analysis. Format: organism-based. To be noted: in vivo.
Data set [14] is described as follows: Toxicity in C57BL/6 mouse assessed as histological changes in lung at 3 nmol/g, iv administered 3 consecutive days by H and E staining based analysis. The class given is organism-based. To be noted: in vivo.
A short description of data set [15]: Toxicity in C57BL/6 mouse assessed as histological changes in spleen at 3 nmol/g, iv administered 3 consecutive days by H and E staining based analysis. Format: organism-based. Conditions: in vivo.
The test system of data set [16] is Neuron. The experiment in a line: Neuroprotective activity against NMDA-induced cell death in mouse primary neuron assessed as reduction in cell viability at 100 nM preincubated with compound for 1 hrs followed by NMDA addition and measured after 1 hrs by PI staining based analysis (reference value: 60.01 +/- 4%). The class given is functional. To be noted: time 2 hrs.

In data set [17] the test system is Neuron. Nature of the data set: Neuroprotective activity against Amyloid beta-induced cell death in mouse primary neuron assessed as cell viability at 100 nM preincubated with compound for 1 hrs followed by Amyloid beta addition and measured after 1 hrs by PI staining based analysis. The class given is functional. Conditions: time 2.0 hrs.
Data set [18] relates to Mus musculus. The experiment in a line: Neuroprotective activity against pilocarpine-induced seizure in C57BL6 mouse assessed as survival rate at 30 nmol/g, po pretreated with compound for 1 hrs followed by pilocarpine induction and measured after 2 hrs relative to control. The class given is functional. Conditions: time 3 hrs.

Sequence of Disks large homolog 4 (P78352 whole entry): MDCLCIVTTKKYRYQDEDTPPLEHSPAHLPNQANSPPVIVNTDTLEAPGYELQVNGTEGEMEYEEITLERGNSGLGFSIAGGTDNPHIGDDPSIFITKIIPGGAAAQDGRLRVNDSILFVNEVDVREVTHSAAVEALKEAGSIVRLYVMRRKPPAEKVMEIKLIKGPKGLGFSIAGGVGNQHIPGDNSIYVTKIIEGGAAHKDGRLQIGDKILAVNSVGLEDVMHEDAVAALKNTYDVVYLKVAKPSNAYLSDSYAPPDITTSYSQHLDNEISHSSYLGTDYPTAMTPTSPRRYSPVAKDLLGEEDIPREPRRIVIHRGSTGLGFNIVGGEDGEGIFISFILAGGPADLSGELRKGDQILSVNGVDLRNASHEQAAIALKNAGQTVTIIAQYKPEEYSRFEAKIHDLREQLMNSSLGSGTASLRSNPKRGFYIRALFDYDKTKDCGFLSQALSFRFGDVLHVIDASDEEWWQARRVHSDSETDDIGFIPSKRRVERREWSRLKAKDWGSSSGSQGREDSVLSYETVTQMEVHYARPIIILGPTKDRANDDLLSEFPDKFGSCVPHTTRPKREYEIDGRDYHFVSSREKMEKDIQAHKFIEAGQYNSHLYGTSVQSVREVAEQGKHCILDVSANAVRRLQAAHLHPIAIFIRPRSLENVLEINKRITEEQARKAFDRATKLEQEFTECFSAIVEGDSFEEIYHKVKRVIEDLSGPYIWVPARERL

As for `CC[C@H](C)[C@H](NC(=O)[C@H](CO)NC(=O)[C@H](CO)NC(=O)[C@H](CC(C)C)NC(=O)[C@H](CCCCN)NC(=O)[C@H](CCCNC(=N)N)NC(=O)[C@H](CCCNC(=N)N)NC(=O)[C@H](CCCNC(=N)N)NC(=O)[C@H](CCC(N)=O)NC(=O)[C@H](CCCNC(=N)N)NC(=O)[C@H](CCCNC(=N)N)NC(=O)[C@H](CCCCN)NC(=O)[C@H](CCCCN)NC(=O)[C@H](CCCNC(=N)N)NC(=O)CNC(=O)[C@H](Cc1ccc(O)cc1)NC(=O)c1ccc(C(=O)[O-])cc1-c1c2ccc(=[N+](C)C)cc-2oc2cc(N(C)C)ccc12)C(=O)N[C@@H](CCC(=O)O)C(=O)N[C@@H](CO)C(=O)N[C@@H](CC(=O)O)C(=O)N[C@H](C(=O)O)C(C)C`, in data set [1], the half-life (usually the time needed for the level to fall by half in the phase considered) at 100 µM is around 45 min. For the same compound, the remaining at 5 h, 100 µM in data set [2] is 9%. In data set [3], the Stability entry was “Unstable”.

With `CC[C@H](C)[C@@H]1NC(=O)[C@H](CO)NC(=O)[C@H](CO)NC(=O)[C@H](CC(C)C)NC(=O)[C@H](CCCCN)NC(=O)[C@@H]2CSSC[C@@H]3NC(=O)[C@H](CC(=O)O)NC(=O)[C@H](CO)NC(=O)[C@H](CC(=O)O)NC(=O)[C@H](CCCNC(=N)N)NC(=O)[C@H](CCCNC(=N)N)NC(=O)[C@@H]4CSSC[C@H](NC(=O)[C@H]([C@@H](C)CC)NC(=O)[C@H](CSSC[C@H](NC(=O)[C@H](C)NC(=O)[C@H](CC(=O)O)NC(=O)[C@H](C)NC(=O)[C@H](CCC(=O)O)NC1=O)C(=O)N1CCC[C@H]1C(=O)N[C@@H](CCCNC(=N)N)C(=O)N[C@@H]([C@@H](C)CC)C(=O)N[C@@H](CC(C)C)C(=O)N[C@@H](CCCNC(=N)N)C(=O)N[C@@H](CCCNC(=N)N)C(=O)N[C@@H](CCCNC(=N)N)C(=O)N[C@@H](CCCNC(=N)N)C(=O)N4)NC(=O)[C@H](C)NC(=O)CNC(=O)[C@@H]1CCCN1C3=O)C(=O)N[C@@H](CCCNC(=N)N)C(=O)NCC(=O)N[C@@H](CC(N)=O)C(=O)NCC(=O)N[C@@H](Cc1ccc(O)cc1)C(=O)N2` (cyclo(ACICRGNGYCKLSSIEADACPRILRRRRCRRDSDCPG); disulfide 2-20, 4-29, 10-35), in the data set with Neuron [4], the Activity result is reported as “Non-toxic”. In the data set with Neuron [5], the outcome was inactive. Further, the Survival in the data set with Mus musculus [6] is on record as 30%.

Take `CC[C@H](C)[C@@H]1NC(=O)[C@@H]2CSSC[C@@H]3NC(=O)[C@H](C(C)C)NC(=O)[C@H](CC(=O)O)NC(=O)[C@H](CO)NC(=O)[C@H](CCC(=O)O)NC(=O)[C@H]([C@@H](C)CC)NC(=O)[C@H](CO)NC(=O)[C@H](CO)NC(=O)[C@H](CC(C)C)NC(=O)[C@H](CCCCN)NC(=O)[C@@H]4CSSC[C@H](NC(=O)[C@H](CC(=O)O)NC(=O)[C@H](CO)NC(=O)[C@H](CC(=O)O)NC(=O)[C@H](CCCNC(=N)N)NC(=O)[C@H](CCCNC(=N)N)NC(=O)[C@H](CSSC[C@H](NC1=O)C(=O)N[C@@H](CCCNC(=N)N)C(=O)NCC(=O)N[C@@H](CC(N)=O)C(=O)NCC(=O)N[C@@H](Cc1ccc(O)cc1)C(=O)N4)NC(=O)[C@H](CCCCN)NC(=O)[C@H](CCCCN)NC(=O)[C@H](CC(C)C)NC(=O)[C@H]([C@@H](C)CC)NC(=O)[C@H](CCCCN)NC(=O)[C@@H]1CCCN1C3=O)C(=O)N1CCC[C@H]1C(=O)NCC(=O)N[C@@H](C)C(=O)N2` (cyclo(ACICRGNGYCKLSSIESDVCPKILKKCRRDSDCPG); disulfide 2-20, 4-27, 10-33) [listing 1 of 2 here]: the Drug uptake in [7] is reported as 70.6%; in data set [8], “Not_active”; in data set [9] it was “Active”. Besides, the Activity entry with Neuron [4] is “Non-toxic”.

With `CC[C@H](C)[C@@H]1NC(=O)[C@@H]2CSSC[C@@H]3NC(=O)[C@H](C(C)C)NC(=O)[C@H](CC(=O)O)NC(=O)[C@H](CO)NC(=O)[C@H](CCC(=O)O)NC(=O)[C@H]([C@@H](C)CC)NC(=O)[C@H](CO)NC(=O)[C@H](CO)NC(=O)[C@H](CC(C)C)NC(=O)[C@H](CCCCN)NC(=O)[C@@H]4CSSC[C@H](NC(=O)[C@H](CC(=O)O)NC(=O)[C@H](CO)NC(=O)[C@H](CC(=O)O)NC(=O)[C@H](CCCNC(=N)N)NC(=O)[C@H](CCCNC(=N)N)NC(=O)[C@H](CSSC[C@H](NC1=O)C(=O)N[C@@H](CCCNC(=N)N)C(=O)NCC(=O)N[C@@H](CC(N)=O)C(=O)NCC(=O)N[C@@H](Cc1ccc(O)cc1)C(=O)N4)NC(=O)[C@H](CCCCN)NC(=O)[C@H](CCCCN)NC(=O)[C@H](CC(C)C)NC(=O)[C@H]([C@@H](C)CC)NC(=O)[C@H](CCCCN)NC(=O)[C@@H]1CCCN1C3=O)C(=O)N1CCC[C@H]1C(=O)NCC(=O)N[C@@H](C)C(=O)N2` (cyclo(ACICRGNGYCKLSSIESDVCPKILKKCRRDSDCPG); disulfide 2-20, 4-27, 10-33) [listing 2 of 2 here], the Activity in the data set with Neuron [10] was 31.8%; with Neuron [11], 32.6%.

For the compound `CC[C@H](C)[C@H](NC(=O)[C@H](CO)NC(=O)[C@H](CO)NC(=O)[C@H](CC(C)C)NC(=O)[C@H](CCCCN)NC(=O)[C@H](CCCN=C(N)N)NC(=O)[C@H](CCCN=C(N)N)NC(=O)[C@H](CCCN=C(N)N)NC(=O)[C@H](CCC(N)=O)NC(=O)[C@H](CCCN=C(N)N)NC(=O)[C@H](CCCN=C(N)N)NC(=O)[C@H](CCCCN)NC(=O)[C@H](CCCCN)NC(=O)[C@H](CCCN=C(N)N)NC(=O)CNC(=O)[C@@H](N)Cc1ccc(O)cc1)C(=O)N[C@@H](CCC(=O)O)C(=O)N[C@@H](CO)C(=O)N[C@@H](CC(=O)O)C(=O)N[C@H](C(=O)O)C(C)C` [NERINETIDE], the Activity result (in the data set with Neuron [4]; in data set [12]; in data set [13]; in [14]; in [15]) was “Non-toxic” each time. In addition, the pKd (usually −log10 of the Kd, conventionally taken in molar units) on Disks large homolog 4 is 5.92.

On to `CC[C@H](C)[C@H](NC(=O)[C@H](CO)NC(=O)[C@H](CO)NC(=O)[C@H](CC(C)C)NC(=O)[C@H](CCCCN)NC(=O)[C@H](CCCNC(=N)N)NC(=O)[C@H](CCCNC(=N)N)NC(=O)[C@H](CCCNC(=N)N)NC(=O)[C@H](CCC(N)=O)NC(=O)[C@H](CCCNC(=N)N)NC(=O)[C@H](CCCNC(=N)N)NC(=O)[C@H](CCCCN)NC(=O)[C@H](CCCCN)NC(=O)[C@H](CCCNC(=N)N)NC(=O)CNC(=O)[C@@H](N)Cc1ccc(O)cc1)C(=O)N[C@@H](CCC(=O)O)C(=O)N[C@@H](CO)C(=O)N[C@@H](CC(=O)O)C(=O)N[C@H](C(=O)O)C(C)C` [NERINETIDE], for which the Activity in the data set with Neuron [16] is 13.12%. Besides, in the data set with Neuron [17], the result was Active. The Survival in the data set with Mus musculus [6] came to 85%; in the data set on Mus musculus [18], 50%.
